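Step 1: Grow cells in 96-well plates. Step 2: Expose to compound for 48 hours at 5 concentrations. Step 3: Interpolate endpoints linearly; if unreached, use highest concentration. Here, GI50 denotes the concentration required for 50% inhibition of growth. TGI: concentration producing complete growth inhibition.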
Legend:
Assay in all cases: NCI tumour cell line growth inhibition, 48 h
[1] = tested on: 786-0 renal
[2] = tested on: A498 renal
[3] = tested on: A549 NSCLC
[4] = tested on: ACHN renal
[5] = tested on: BT-549 breast
[6] = tested on: CAKI-1 renal
[7] = tested on: CCRF-CEM leukemia
[8] = tested on: COLO 205 colon
[9] = tested on: DU-145 prostate
[10] = tested on: EKVX NSCLC
[11] = tested on: HCT-116 colon
[12] = tested on: HCT-15 colon
[13] = tested on: HL-60(TB) leukemia
[14] = tested on: HOP-62 NSCLC
[15] = tested on: HS 578T breast
[16] = tested on: HT29 colon
[17] = tested on: IGROV1 ovarian
[18] = tested on: K-562 leukemia
[19] = tested on: KM12 colon
[20] = tested on: LOX IMVI melanoma
[21] = tested on: M14 melanoma
[22] = tested on: MALME-3M melanoma
[23] = tested on: MCF7 breast
[24] = tested on: MDA-MB-231 breast
[25] = tested on: MDA-MB-435
[26] = tested on: MOLT-4 leukemia
[27] = tested on: NCI-H226 lung
[28] = tested on: NCI-H23 lung
[29] = tested on: NCI-H460 lung
[30] = tested on: NCI-H522 lung
[31] = tested on: NCI/ADR-RES ovarian
[32] = tested on: OVCAR-3 ovarian
[33] = tested on: OVCAR-4 ovarian
[34] = tested on: OVCAR-5 ovarian
[35] = tested on: OVCAR-8 ovarian
[36] = tested on: PC-3 prostate
[37] = tested on: RPMI-8226 leukemia
[38] = tested on: RXF 393 renal
[39] = tested on: SF-268 CNS
[40] = tested on: SF-295 CNS
[41] = tested on: SF-539 CNS
[42] = tested on: SK-MEL-2 melanoma
[43] = tested on: SK-MEL-28 melanoma
[44] = tested on: SK-MEL-5 melanoma
[45] = tested on: SK-OV-3 ovarian
[46] = tested on: SN12C renal
[47] = tested on: SNB-19 CNS
[48] = tested on: SNB-75 CNS
[49] = tested on: SR leukemia
[50] = tested on: SW-620 colon
[51] = tested on: T-47D breast
[52] = tested on: TK-10 renal
[53] = tested on: U251 CNS
[54] = tested on: UACC-257 melanoma
[55] = tested on: UACC-62 melanoma
[56] = tested on: UO-31 renal
[57] = tested on: HCC-2998 colon
[58] = tested on: HOP-92 NSCLC

CN(CCCCCl)P(=O)(OCCS(=O)(=O)CC(NC(=O)CCC(N)C(=O)O)C(=O)NC(C(=O)O)c1ccccc1)OCC1OC(n2cc(F)c(=O)[nH]c2=O)CC1O (stereo not drawn)
GI50 [1]: 0.0155 µM
TGI [1]: 2.62 µM
TGI [2]: > 100 µM
GI50 [3]: < 0.0506 µM
TGI [3]: > 100 µM
GI50 [4]: < 0.01 µM
TGI [4]: 14 µM
GI50 [5]: 15.3 µM
TGI [5]: > 94.7 µM
GI50 [6]: 0.0177 µM
TGI [6]: 25.6 µM
GI50 [7]: < 0.0376 µM
TGI [7]: 33.1 µM
GI50 [8]: 10.1 µM
TGI [8]: > 100 µM
GI50 [9]: 0.214 µM
TGI [9]: > 100 µM
GI50 [10]: 39.2 µM
TGI [10]: > 100 µM
GI50 [11]: 0.161 µM
TGI [11]: 39.9 µM
GI50 [12]: 1.32 µM
TGI [12]: 46.6 µM
GI50 [13]: 4.87 µM
TGI [13]: 31.3 µM
GI50 [14]: < 0.01 µM
TGI [14]: 6.99 µM
GI50 [15]: 5.89 µM
TGI [15]: 97.6 µM
GI50 [16]: 2.68 µM
TGI [16]: > 100 µM
GI50 [17]: 0.0884 µM
TGI [17]: > 100 µM
GI50 [18]: 1.81 µM
TGI [18]: > 100 µM
GI50 [19]: 13.3 µM
TGI [19]: > 78 µM
GI50 [20]: < 0.0127 µM
TGI [20]: 52.2 µM
GI50 [21]: 0.0647 µM
TGI [21]: 2.85 µM
GI50 [22]: 8.98 µM
TGI [22]: > 72.2 µM
GI50 [23]: < 0.01 µM
GI50 [24]: 8.96 µM
TGI [24]: 68.6 µM
GI50 [25]: 2.27 µM
TGI [25]: > 100 µM
GI50 [26]: 0.274 µM
TGI [26]: > 95.5 µM
GI50 [27]: 0.628 µM
TGI [27]: > 100 µM
GI50 [28]: 0.27 µM
TGI [28]: > 33.7 µM
GI50 [29]: < 0.01 µM
GI50 [30]: 0.266 µM
TGI [30]: > 57.4 µM
GI50 [31]: 0.323 µM
TGI [31]: > 65.1 µM
GI50 [32]: 1.22 µM
TGI [32]: > 84.4 µM
GI50 [33]: 8.27 µM
TGI [33]: > 100 µM
GI50 [34]: > 27.4 µM
TGI [34]: > 100 µM
GI50 [35]: 0.274 µM
TGI [35]: > 100 µM
GI50 [36]: 0.882 µM
TGI [36]: > 36.1 µM
TGI [37]: 1.48 µM
GI50 [38]: 4 µM
TGI [38]: > 100 µM
GI50 [39]: < 0.01 µM
GI50 [40]: 0.0368 µM
TGI [40]: > 53.8 µM
GI50 [41]: < 0.0105 µM
TGI [41]: 7.74 µM
GI50 [42]: > 49.7 µM
TGI [42]: > 100 µM
GI50 [43]: 15.2 µM
TGI [43]: > 100 µM
GI50 [44]: 0.989 µM
TGI [44]: 15.9 µM
GI50 [45]: 41.3 µM
TGI [45]: > 100 µM
GI50 [46]: 0.41 µM
TGI [46]: 16.9 µM
GI50 [47]: 1.3 µM
TGI [47]: > 100 µM
GI50 [48]: 14.5 µM
TGI [48]: > 100 µM
TGI [49]: > 90.9 µM
GI50 [50]: 1.28 µM
TGI [50]: > 64.4 µM
GI50 [51]: 5.65 µM
TGI [51]: > 100 µM
GI50 [52]: 0.944 µM
TGI [52]: > 21.4 µM
GI50 [53]: < 0.0171 µM
TGI [53]: > 41.6 µM
GI50 [54]: 4.58 µM
TGI [54]: > 100 µM
GI50 [55]: > 100 µM
TGI [55]: > 100 µM
GI50 [56]: 0.0973 µM
TGI [56]: > 81.2 µM

O=C(/C=C/c1csc(-c2ccccc2)n1)NCc1ccc(C(=O)NCc2ccccc2)cc1
TGI [1]: > 100 µM
TGI [2]: > 100 µM
TGI [3]: > 100 µM
TGI [4]: > 100 µM
TGI [5]: > 100 µM
TGI [6]: > 100 µM
TGI [7]: > 100 µM
TGI [8]: > 100 µM
TGI [9]: > 100 µM
TGI [10]: > 100 µM
TGI [57]: > 100 µM
TGI [11]: > 100 µM
TGI [12]: > 100 µM
TGI [14]: 32.8 µM
TGI [58]: > 100 µM
TGI [15]: > 100 µM
TGI [16]: > 100 µM
TGI [17]: > 100 µM
TGI [18]: > 100 µM
TGI [19]: > 100 µM
TGI [20]: > 100 µM
TGI [21]: > 100 µM
TGI [22]: > 100 µM
TGI [23]: > 100 µM
TGI [24]: 53.5 µM
TGI [25]: > 100 µM
TGI [26]: > 100 µM
TGI [27]: > 100 µM
TGI [28]: > 100 µM
TGI [29]: > 100 µM
TGI [30]: > 100 µM
TGI [31]: > 100 µM
TGI [32]: > 100 µM
TGI [33]: > 100 µM
TGI [34]: > 100 µM
TGI [35]: > 100 µM
TGI [36]: > 100 µM
TGI [37]: > 100 µM
TGI [38]: > 100 µM
TGI [39]: > 100 µM
TGI [40]: > 100 µM
TGI [41]: > 100 µM
TGI [42]: > 100 µM
TGI [43]: > 100 µM
TGI [44]: > 100 µM
TGI [45]: > 100 µM
TGI [46]: > 100 µM
TGI [47]: 88.7 µM
TGI [48]: 60.5 µM
TGI [49]: > 100 µM
TGI [50]: > 100 µM
TGI [51]: > 100 µM
TGI [52]: 85.8 µM
TGI [53]: > 100 µM
TGI [54]: > 100 µM
TGI [55]: > 100 µM
TGI [56]: > 100 µM

— PubChem BioAssay (NCI)
